These results are taken from patent US8247551B2, “Lead sensor and methods of use” (priority 2007, dated 2012).

Data set [1] in a line: Fluorescence quantum yield in reference to fluorescein. Type of data set: physicochemical. Here is the method: For an acetonitrile solution of fluorophore 7, when excited at […] or 384 nm band, an emission at 411 nm is observed. Similarly when a methanolic solution of fluorophore 7 is excited at 385 nm or 367 nm, an emission at 415 nm is observed. Finally for a solution of fluorophore 7 in the mixed solvent, when excited at 389 nm, an emission is observed at 423 nm (see FIG. 10). A 0.12 value for the quantum yield of fluorophore 7 in methanol was determined in reference to fluorescein in 0.1 M NaOH (φ=0.95) (using the procedure reported by Brannon, et al., J. Phys. Chem. 1978, 82, 705). Fluorophores of the present disclosure are further described in U.S. application Ser. No. 12/020,343, filed Jan. […]
When the fluorescent binder according to the present embodiments binds with Pb^2+ to form a Pb^2+/binder complex, the complex fluoresces with a high optical brightness. For example, according to the present embodiments, the unbound fluorescent binder represented by Formula V (or Formula IV, in its protected form) may have an excitation band with a absorbance maximum λmax at a wavelength centered around 415 nm, an emission band with a emission maximum λmax centered around 465 and a quantum yield for the fluorescence emission of φ=0.12. […] Quantum yields were calculated with reference to the quantum yield of fluorescein (φ=0.95). […]

Data set [2] in a line: Quantitative Pb2+ detection in NIST SRM 1643e Trace Elements in Water. The conditions noted are these: 1 μM compound, NEt4OH 2:1, 2.5% MeOH and water. Here is the method:
The fluorescence emission intensity of the Pb^2+/complex in a sample may be measured and compared to a standard calibration plot or values to determine the Pb^2+ ion concentration in the sample. For example, To further examine the sensitivity and accuracy of the sensor, a NIST standard of trace elements in water (SRM® 1643e) in the concentration range of 1-50 ppb Pb^2+ was used and probed with 1 μM of a compound having the structure of Formula IV. In this case, accurate fluorescence responses were observed from 50 ppb to as low as 10 ppb. Further, compound IV was also used in quantitating the concentration of Pb^2+ in solutions prepared from a lead standard (NIST SRM® 3128).
All spectroscopic measurements were recorded in a solution of 2.5% methanol (for solubility reason) and water. HPLC grade MeOH and distilled water were used for each measurement. Absorption spectra were measured on a Varian Cary 300 spectrometer. Samples for absorption measurement were performed in 1-cm 1-cm quartz cuvettes (3.5 mL volume, Starna). Fluorescence spectra were measured on a Photon Technology International QuantaMaster™4 spectrofluorometer. Fluorescence measurements were performed in 1-cm 1-cm quartz cuvettes (3.5 mL volume, NSG Precision Cells). Fluorescence quantum yields were determined in reference to fluorescein in 0.1 NaOH (φ=0.95). […]

Data set [3] in a line: Stability in acid and base. In kind it is physicochemical. From the text: (§1) These fluorophores are soluble in common organic solvents, for example, but not limited to, chloroform, methylene chloride, acetonitrile, and methanol and in mixtures of methanol and water. […] There is a shoulder near […] and no transition was observed beyond 430 nm. The molar extinction coefficients of these bands are near 10000 or higher. […] The spectral features remain unchanged in a mixed solvent such as 2.5% methanol 97.5% water. […] Thus, in principle, this compound can be used as a pH sensor. That is, the fluorescence emission intensity may vary according to the pH of the environment or solution that the fluorophore is in.

A further data set in a line: Solubility. Type of data set: physicochemical.
Description: as §1
In addition, the Pb^2+/binder complex fluoresces with greater emission intensity over a wide pH range in aqueous solutions. According to one embodiment the Pb^2+/binder complex fluoresces with a high fluorescence emission intensity, for example with a quantum yield of greater than 0.5 (φ>0.5), at pH values of 10 or less. […] Thus, the term “high fluorescence emission intensity” means a fluorescence emission intensity having a quantum efficiency of greater than 0.5 (φ>0.5 as measured relative to a fluorescein reference). […] With other fluorophores, the fluorescence emission intensity of the fluorophore may decrease at low pH levels. For comparison, as discussed herein, the quantum yield for fluorescence emission of fluorescein decreases at pH levels less than ˜8.

Data set [4] in a line: Fluorescence emission with Pb2+ versus other metal ions (Example 5, FIG. 51). The conditions noted are these: 5 μM fluorophore, 75 μM Pb^2+, other metal ion 75 μM or 2 millimolar. From the text: According to certain embodiments, the fluorescent binder discussed herein selectively binds to Pb^2+ over other metal ions including other transition metal ions. According to various embodiments, the fluorescence emission intensity of the Pb^2+/binder complex is greater than a fluorescence emission intensity of other metal ion/binder complexes. Other metal ions that may form a metal ion/binder complex that has a lower fluorescence emission intensity than that of the Pb^2+/binder complex include, but are not limited to Li^+, Na^+, K^+, Ca^2+, Mg^2+, Fe^2+, Co^2+, Ni^2+, Cu^2+, Zn^2+, Cd^2+, Mn^2+, Hg^2+, Sn^2+, As^3+, and mixtures thereof. For example, according to one non-limiting embodiment, the Pb^2+/binder complex in the presence of the other metal ions may have a fluorescence emission intensity at least about 10 times greater than the fluorescence emission intensity of another metal ion/binder complex. In other embodiments, the Pb^2+/binder complex in the presence of the other metal may have a fluorescence emission intensity at least about 20 times greater than the fluorescence emission intensity of another metal ion/binder complex. FIG. 51 compares the fluorescence emission intensity of the Pb^2+/binder complex in the presence of the other metal with the fluorescence emission intensity of the other metal ion/binder complexes (i.e., in the absence of Pb^2+). […]

The nature of data set [5]: Turn-on fluorescence response to Pb2+ (Example 3, FIG. 49). As to conditions: 5 μM, 2.5% methanol-water; unbound at 465 nm, Pb^2+ complex at 423 nm. From the text:
When the fluorescent binder according to the present embodiments binds with Pb^2+ to form a Pb^2+/binder complex, the complex fluoresces with a high optical brightness. For example, according to the present embodiments, the unbound fluorescent binder represented by Formula V (or Formula IV, in its protected form) may have an excitation band with a absorbance maximum λmax at a wavelength centered around 415 nm, an emission band with a emission maximum λmax centered around 465 and a quantum yield for the fluorescence emission of φ=0.12. When the fluorescent binder is bound to Pb^2+ ions, the resulting Pb^2+/binder complex may have an excitation band with a λmax centered around 389 nm, an emission band with a λmax centered around 423 nm, and a quantum yield of φ=0.63. Quantum yields were calculated with reference to the quantum yield of fluorescein (φ=0.95). […]
In this Example, the “turn on” response of the fluorophore corresponding to Formula V (Formula IV in protected form) was determined. The fluorescence emission spectrum of a 5 μM solution of the fluorophore in 2.5% methanol-water was recorded with a maximum emission intensity observed at λmax=465 nm (expanded spectrum shown in the inset in FIG. 49). […] The fluorescence emission spectrum of the resulting Pb^2+/fluorophore complex was recorded with a maximum fluorescence emission intensity observed at λmax=423 nm as presented in FIG. 49.

A short description of data set [6]: Apparent dissociation constant for Pb2+ from fluorescence of the complex (Hill fit). Type of data set: binding. The conditions noted are these: pH=10; read-out: apparent dissociation coefficient, Kd, for Pb^2+. From the text: [drawing 8] or the corresponding thiolate compound (i.e., where one or both thiols of the ene-dithiol are deprotonated). In the presence of Pb^2+ ions and a hydrolyzing agent, the dithiocarbonate functionality of compound IV may be hydrolyzed and the resulting fluorescent binder compound binds with the Pb^2+ to form a Pb^2+/binder complex. According to specific embodiments, the fluorescent binder of the present disclosure has a high sensitivity for Pb^2+ ions, even in the presence of other metal ions. […] In other embodiments, the Kd may be less than 300 nM, or in certain embodiments less than 250 nM. […] As will be understood by one of ordinary skill in the art, the Kd for binding of Pb^2+ may vary according to the conditions of the experiment, including, but not limited to solvent, temperature, pH, etc. It should be noted that in other embodiments, other compounds represented by Formula I may also serve as selective binders of lead, or other metal ions.
All spectroscopic measurements were recorded in a solution of 2.5% methanol (for solubility reason) and water. HPLC grade MeOH and distilled water were used for each measurement. Absorption spectra were measured on a Varian Cary 300 spectrometer. Samples for absorption measurement were performed in 1-cm 1-cm quartz cuvettes (3.5 mL volume, Starna). […]

Compound `CC1(C)Oc2nc3ccccc3nc2-c2sc(=O)sc21` [Compound 7, 4,4-dimethyl-4H-5-oxa-1,3-dithia-6,11-diaza-cyclopenta[a]anthracen-2-one] gave a quantum yield in data set [1] (in methanol, reference fluorescein in 0.1 M NaOH) of 0.12. For the same compound, the “Pb^2+ range detected quantitatively by increase in fluorescence response” value in data set [2] was 10-50 ppb. Besides, in data set [3] (acid), the stability in acid result was “stable in acid”. Also, the stability in base entry in data set [3] (base (pH>7)) was “transforms into a less fluorescent substance”.
Turning to `CC1(C)Oc2nc3ccccc3nc2C(S)=C1S` [Formula V], in data set [1] (unbound binder or Pb^2+ complex, reference fluorescein (φ=0.95)), the “quantum yield for the fluorescence emission” value worked out at 0.12. In addition, the “solubility in aqueous solution” value in the data set “Solubility” was “soluble in aqueous solution”. In addition, in data set [4], the “fluorescence emission intensity with Pb^2+ plus other metal ion versus other metal ion alone” value was “significantly greater fluorescence emission intensity”. In data set [5], the “maximum fluorescence emission intensity” value is listed as about 6000 counts/second. Further, the Kd in data set [6] came out at 217 nM.
